Reference: ChEMBL document CHEMBL1201862, “PubChem BioAssay data set” (2004)
Where “and” joins values, the source holds several entries; their conditions need not be identical. Identical values can stand only once.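 Protocol summary: plate cells (96-well), add compound at 5 concentrations, incubate 48 h, interpolate endpoints linearly. Here, GI50 denotes the concentration required for 50% inhibition of growth.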 Calls of active or inactive are those of the source. No stated cut-off is given here; in the data, active = GI50 up to about 1.1 µM and inactive = higher.

Assays:
Experiment in all cases: inhibition of tumour cell growth, NCI panel, 48 h
[1] = test system: 786-0
[2] = test system: A498
[3] = test system: A549
[4] = test system: ACHN
[5] = test system: CAKI-1
[6] = test system: CCRF-CEM
[7] = test system: COLO 205
[8] = test system: DLD-1
[9] = test system: DMS-114
[10] = test system: DMS-273
[11] = test system: EKVX
[12] = test system: HCC 2998
[13] = test system: HCT-116
[14] = test system: HCT-15
[15] = test system: HL-60
[16] = test system: HOP-18
[17] = test system: HOP-62
[18] = test system: HOP-92
[19] = test system: HT-29
[20] = test system: IGROV-1
[21] = test system: K562
[22] = test system: KM-20L2
[23] = test system: KM12
[24] = test system: LOX IMVI
[25] = test system: LXFL 529
[26] = test system: M14
[27] = test system: M19-MEL
[28] = test system: MOLT-4
[29] = test system: Malme-3M
[30] = test system: NCI-H226
[31] = test system: NCI-H23
[32] = test system: NCI-H460
[33] = test system: NCI-H522
[34] = test system: OVCAR-3
[35] = test system: OVCAR-4
[36] = test system: OVCAR-5
[37] = test system: OVCAR-8
[38] = test system: RPMI-8226
[39] = test system: RXF 393
[40] = test system: RXF 631
[41] = test system: SF-268
[42] = test system: SF-295
[43] = test system: SF-539
[44] = test system: SK-MEL-28
[45] = test system: SK-MEL-2
[46] = test system: SK-MEL-5
[47] = test system: SK-OV-3
[48] = test system: SN12C
[49] = test system: SNB-19
[50] = test system: SNB-75
[51] = test system: SNB-78
[52] = test system: SR
[53] = test system: SW-620
[54] = test system: TK-10
[55] = test system: U-251
[56] = test system: UACC-257
[57] = test system: UACC-62
[58] = test system: UO-31
[59] = test system: XF498
[60] = test system: BT-549
[61] = test system: DU-145
[62] = test system: MCF7
[63] = test system: MDA-MB-231
[64] = test system: MDA-N
[65] = test system: NCI/ADR-RES
[66] = test system: T47D

Cc1ccc(NC(=O)C2C3CCC(O3)C2C(=O)O)cc1 (configuration not stated)
GI50 [1]: > 40.6 µM (inactive) | GI50 [2]: > 45.1 µM (inactive) | GI50 [3]: > 76.2 µM (inactive) | GI50 [4]: > 93.5 µM (inactive) | GI50 [5]: > 100 µM (inactive) | GI50 [6]: > 44.8 µM (inactive) | GI50 [7]: 35.7 µM (inactive) | GI50 [8]: > 54.1 µM (inactive) | GI50 [9]: 33.3 µM (inactive) | GI50 [10]: > 57.8 µM (inactive) | GI50 [11]: > 94.4 µM (inactive) | GI50 [12]: 99.1 µM (inactive) | GI50 [13]: > 39 µM (inactive) | GI50 [14]: > 44.9 µM | GI50 [15]: > 40.2 µM (inactive) | GI50 [16]: > 86.3 µM (inactive) | GI50 [17]: > 100 µM (inactive) | GI50 [18]: 36.1 µM (inactive) | GI50 [19]: > 45 µM (inactive) | GI50 [20]: > 100 µM (inactive) | GI50 [21]: > 48.2 µM (inactive) | GI50 [22]: > 26.6 µM (inactive) | GI50 [23]: > 100 µM (inactive) | GI50 [24]: > 38.7 µM (inactive) | GI50 [25]: > 46.2 µM (inactive) | GI50 [26]: > 49.4 µM (inactive) | GI50 [27]: > 61.2 µM (inactive) | GI50 [28]: > 87.9 µM (inactive) | GI50 [29]: > 100 µM (inactive) | GI50 [30]: 56.5 µM (inactive) | GI50 [31]: > 100 µM (inactive) | GI50 [32]: > 71.4 µM (inactive) | GI50 [33]: 43.6 µM (inactive) | GI50 [34]: > 52.2 µM (inactive) | GI50 [35]: > 100 µM (inactive) | GI50 [36]: > 100 µM (inactive) | GI50 [37]: > 100 µM (inactive) | GI50 [38]: 39.6 µM (inactive) | GI50 [39]: 15.8 µM (inactive) | GI50 [40]: 53.7 µM (inactive) | GI50 [41]: > 53.2 µM (inactive) | GI50 [42]: > 95.9 µM (inactive) | GI50 [43]: > 57.7 µM (inactive) | GI50 [44]: > 75 µM (inactive) | GI50 [45]: 64.9 µM (inactive) | GI50 [46]: > 75 µM (inactive) | GI50 [47]: > 83.9 µM (inactive) | GI50 [48]: > 48.8 µM (inactive) | GI50 [49]: > 100 µM (inactive) | GI50 [50]: 31.9 µM (inactive) | GI50 [51]: > 86.7 µM (inactive) | GI50 [52]: 15.7 µM (inactive) | GI50 [53]: > 22.3 µM (inactive) | GI50 [54]: > 100 µM (inactive) | GI50 [55]: 43.1 µM (inactive) | GI50 [56]: > 100 µM (inactive) | GI50 [57]: > 46.6 µM (inactive) | GI50 [58]: > 100 µM (inactive) | GI50 [59]: 22.6 µM (inactive)

C=C1CC(CCCl)(c2ccccc2)OC1=O (configuration not stated)
GI50 [1]: 17.4 µM (inactive) | GI50 [2]: > 100 µM (inactive) | GI50 [3]: > 71.9 µM (inactive) | GI50 [4]: 32.5 µM (inactive) | GI50 [6]: 20 µM (inactive) | GI50 [7]: 29 µM (inactive) | GI50 [8]: 20.1 µM (inactive) | GI50 [9]: 37.9 µM (inactive) | GI50 [10]: 34.7 µM (inactive) | GI50 [11]: > 44 µM (inactive) | GI50 [12]: 35.7 µM (inactive) | GI50 [13]: 22.9 µM (inactive) | GI50 [14]: 19.7 µM | GI50 [15]: 19.8 µM (inactive) | GI50 [16]: > 42.9 µM (inactive) | GI50 [17]: > 100 µM (inactive) | GI50 [18]: 15.7 µM (inactive) | GI50 [19]: 33 µM (inactive) | GI50 [20]: > 100 µM (inactive) | GI50 [21]: 33.3 µM (inactive) | GI50 [22]: 61.8 µM (inactive) | GI50 [23]: 44.7 µM (inactive) | GI50 [24]: 30.5 µM (inactive) | GI50 [25]: 20 µM (inactive) | GI50 [26]: 19.5 µM (inactive) | GI50 [27]: 34.7 µM (inactive) | GI50 [28]: 21.1 µM (inactive) | GI50 [29]: 23.6 µM (inactive) | GI50 [30]: > 100 µM (inactive) | GI50 [31]: > 100 µM (inactive) | GI50 [32]: > 100 µM (inactive) | GI50 [33]: 18.5 µM (inactive) | GI50 [34]: 26.1 µM (inactive) | GI50 [35]: > 100 µM (inactive) | GI50 [36]: > 100 µM (inactive) | GI50 [37]: 41.1 µM (inactive) | GI50 [38]: 15.8 µM (inactive) | GI50 [39]: 13.3 µM (inactive) | GI50 [40]: > 42.7 µM (inactive) | GI50 [41]: > 67 µM (inactive) | GI50 [42]: > 100 µM (inactive) | GI50 [43]: 27.9 µM (inactive) | GI50 [44]: 16.2 µM (inactive) | GI50 [45]: > 57.5 µM (inactive) | GI50 [46]: > 100 µM (inactive) | GI50 [47]: > 100 µM (inactive) | GI50 [48]: 31.5 µM (inactive) | GI50 [49]: > 78.7 µM (inactive) | GI50 [50]: 22.4 µM (inactive) | GI50 [51]: 42.2 µM (inactive) | GI50 [52]: 20.1 µM (inactive) | GI50 [53]: 20.2 µM (inactive) | GI50 [54]: > 47.5 µM (inactive) | GI50 [55]: > 59.3 µM (inactive) | GI50 [56]: 44.2 µM (inactive) | GI50 [57]: 48.4 µM (inactive) | GI50 [58]: 58.3 µM (inactive) | GI50 [59]: 41.2 µM (inactive)

CN(C)C(=S)SSC(=S)N(C)C [THIRAM]
GI50 [2]: 45.8 µM (inactive) and > 60 µM (inactive) | GI50 [60]: 17.2 µM (inactive) and 14.2 µM (inactive) | GI50 [8]: 2.59 µM (inactive) | GI50 [9]: 0.124 µM (active) | GI50 [10]: 0.285 µM (active) | GI50 [61]: 47.1 µM (inactive) and 37.7 µM (inactive) | GI50 [12]: 16.7 µM (inactive) and 29.3 µM (inactive) | GI50 [16]: > 100 µM (inactive) | GI50 [17]: > 67.9 µM (inactive) | GI50 [22]: 1.64 µM (inactive) | GI50 [25]: 1.98 µM (inactive) | GI50 [26]: 17.3 µM (inactive) and 20.6 µM (inactive) | GI50 [27]: 0.581 µM (active) | GI50 [62]: 20.8 µM (inactive) and 17.7 µM (inactive) | GI50 [63]: 16.8 µM (inactive) and 20.2 µM (inactive) | GI50 [64]: 19.1 µM (inactive) and 14.1 µM (inactive) | GI50 [29]: 20.2 µM (inactive) and 12.4 µM (inactive) | GI50 [65]: 17.2 µM (inactive) | GI50 [40]: 42.2 µM (inactive) | GI50 [42]: 21 µM (inactive) and 28.6 µM (inactive) | GI50 [44]: 13 µM (inactive) and 23.8 µM (inactive) | GI50 [48]: 36.4 µM (inactive) and 24.3 µM (inactive) | GI50 [49]: > 57.8 µM (inactive) and 54.6 µM (inactive) | GI50 [50]: 28.1 µM (inactive) and 36 µM (inactive) | GI50 [51]: > 75.5 µM (inactive) | GI50 [66]: 26.2 µM (inactive) and 18.3 µM (inactive) | GI50 [55]: 14.3 µM (inactive) and 17.9 µM (inactive) | GI50 [57]: 3.52 µM (inactive) and 2.3 µM (inactive) | GI50 [58]: > 46.5 µM (inactive) and 31.9 µM (inactive) | GI50 [59]: 4.48 µM (inactive)
